These results are taken from patent publication US20260274856A1, “COVALENT CEREBLON LIGANDS” (C4 THERAPEUTICS, INC., priority 2023, published 2026).

The target of this experiment is mutant BRAF V600E (Homo sapiens, UniProt P15056, V600E). Nature of the experiment: BRAF V600E HiBiT Degradation Assay in A375.10 cells. The following applies: for HiBIT-Degradation A375.10 BRAF 24 hours IP nM / DC50: A375.10 cells, 24 hours; for HiBIT-Degradation A375.10 BRAF 24 hours IP nM: inflection point of the dose-response curve; for DC50: read-out: HiBIT-Degradation A375.10 BRAF 24 hours DC50 nM; for Emax: read-out: HiBIT-Degradation A375.10 BRAF 24 hours Emax. In general terms: HiBiT is a short tag that completes a luciferase, so light tracks the accessible tagged protein.
Sequence of mutant BRAF V600E (P15056 whole entry V600E): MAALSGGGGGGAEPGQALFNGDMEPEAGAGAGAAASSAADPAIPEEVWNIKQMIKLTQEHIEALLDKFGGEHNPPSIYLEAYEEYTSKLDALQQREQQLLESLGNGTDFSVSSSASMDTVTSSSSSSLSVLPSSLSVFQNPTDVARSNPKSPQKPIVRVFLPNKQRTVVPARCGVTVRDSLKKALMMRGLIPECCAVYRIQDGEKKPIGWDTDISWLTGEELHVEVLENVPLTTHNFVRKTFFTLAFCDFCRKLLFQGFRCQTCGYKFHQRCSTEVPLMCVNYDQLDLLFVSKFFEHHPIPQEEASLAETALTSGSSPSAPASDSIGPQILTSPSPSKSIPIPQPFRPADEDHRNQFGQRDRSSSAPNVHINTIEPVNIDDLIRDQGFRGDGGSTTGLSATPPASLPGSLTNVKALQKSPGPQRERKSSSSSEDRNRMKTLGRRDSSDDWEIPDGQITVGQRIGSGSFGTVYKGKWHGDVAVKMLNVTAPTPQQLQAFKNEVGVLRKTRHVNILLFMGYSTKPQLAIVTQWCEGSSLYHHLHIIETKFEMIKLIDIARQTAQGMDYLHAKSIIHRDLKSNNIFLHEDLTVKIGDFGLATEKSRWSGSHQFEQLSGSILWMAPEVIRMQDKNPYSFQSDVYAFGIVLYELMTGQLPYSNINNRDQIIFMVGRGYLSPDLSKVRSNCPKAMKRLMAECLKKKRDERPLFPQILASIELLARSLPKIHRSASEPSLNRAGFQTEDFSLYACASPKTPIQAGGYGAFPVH

Procedure: Compounds of this invention were tested for degradation of mutant BRAF V600E using the HiBiT assay, a luminescence-based assay for quantification of cellular protein levels using the Nano-Glo@HiBiT Lytic Detection System (Catalog No. N3050, Promega, Madison, WI USA). This assay utilizes the HiBiT tag on a protein of interest, which creates a luminescent signal in the presence of a complementing peptide and its substrate, the quantification of which 10 is proportional to the amount of HiBiT-tagged protein in the cell.
A375 cells were engineered to express HiBiT tagged BRAF V600E by CRISPR knock-in of the HiBiT tag to the endogenous BRAF V600E locus, followed by selection of a clonal population containing 15 the appropriate knock-in (referred to here as cell line A375.10). […] Cell culture flasks and 384-well microplates 20 were acquired from VWR (Radnor, PA, USA).
Plates were then spun briefly, and cells were incubated with compound at 37° C. for 2 hoursor 24 hours.
Following the appropriate treatment time, Nano-Glo® HiBiT Lytic Assay reagents were added to the cells per the manufacturer's instructions by adding 30ul of reagent per well, and 10 the luminescence signal was acquired by plate reader. Cells treated with DMSO only (no test compound treatment) were used as the negative control (N). Media only (no cells added) with Nano-Glo reagent addition was used as the background or positive control (P). The percent response of compound treated samples were calculated by subtracting out the background signal (P) and normalizing to the DMSO control (N) as follows. % Response=100 x (Treated Signal - Average (P))/(Average (N) - Average (P)).
Data were analyzed with a 4-parameter logistic fit to generate sigmoidal dose-response curves. […] The Emax, or maximum effect of each compound, represents the amount of residual protein remaining in the cell following compound treatment.
The experiment was conducted at least once for each compound. If the experiment was conducted multiple times, the data shown in the table is the average of the two or more experiments.

As usually defined, the DC50 is the concentration at which degradation of the target reaches its halfway point. Regarding `CCN(C)S(=O)(=O)Nc1ccc(F)c(Oc2ccc3ncn([C@H]4COC5(CCN(C(=O)CN6CCC(c7ccc(C8CCC(=O)NC8=O)cc7OS(=O)(=O)F)CC6)CC5)C4)c(=O)c3c2)c1C#N` (some centres unmarked) [drawing 1216], the “HiBIT-Degradation A375.10 BRAF 24 hours IP nM” value is “*** (<= 1 μM is ***)” and the 50% degradation concentration (DC50) was less than 1000 nM.
In general, Emax refers to the greatest response seen or fitted, relative to the assay's reference. As to `CCN(C)S(=O)(=O)Nc1ccc(F)c(Oc2ccc3ncn([C@H]4COC5(CCN(C(=O)CN6CCC(c7ccc(NC8CCC(=O)NC8=O)cc7OS(C)(=O)=O)CC6)CC5)C4)c(=O)c3c2)c1C#N` (some centres unmarked) [drawing 1217], the “HiBIT-Degradation A375.10 BRAF 24 hours IP nM” value is “*** (<= 1 μM is ***)”, the DC50 is less than 1000 nM and the Emax was less than 60%.
The like results for `CCN(C)S(=O)(=O)Nc1ccc(F)c(Oc2ccc3ncn([C@H]4COC5(CCN(C(=O)CN6CCC(c7ccc(N8CCC(=O)NC8=O)cc7OS(=O)(=O)F)CC6)CC5)C4)c(=O)c3c2)c1C#N` [drawing 1218] were, in that order, “*** (<= 1 μM is ***)”, greater than 10000 nM and 60 to 95%.
In the case of `CCN(C)S(=O)(=O)Nc1ccc(F)c(Oc2ccc3ncn([C@@H]4COC5(CCN(C(=O)CN6CCC(c7ccc(N8CCC(=O)NC8=O)cc7OS(C)(=O)=O)CC6)CC5)C4)c(=O)c3c2)c1C#N` [drawing 1219], the “HiBIT-Degradation A375.10 BRAF 24 hours IP nM” value was “*** (<= 1 μM is ***)”, the half-maximal degradation concentration (DC50) was less than 1000 nM and the Emax was less than 60%.
For `CCN(C)S(=O)(=O)Nc1ccc(F)c(Oc2ccc3ncn([C@H]4COC5(CCN(C(=O)CN6CCC(c7ccc(N8CCC(=O)NC8=O)cc7OS(C)(=O)=O)CC6)CC5)C4)c(=O)c3c2)c1C#N` [drawing 1220], in that order: “*** (<= 1 μM is ***)”, less than 1000 nM and less than 60%.
For the compound `CCN(C)S(=O)(=O)Nc1ccc(F)c(Oc2ccc3ncn([C@@H]4COC5(CCN(C(=O)CN6CCC(c7ccc(OC8CCC(=O)NC8=O)cc7S(=O)(=O)F)CC6)CC5)C4)c(=O)c3c2)c1C#N` (some centres unmarked) [drawing 1221], the “HiBIT-Degradation A375.10 BRAF 24 hours IP nM” value is “*** (<= 1 μM is ***)”, the DC50 is less than 1000 nM and the maximum response (Emax) is less than 60%.
For `CCN(C)S(=O)(=O)Nc1ccc(F)c(Oc2ccc3ncn([C@@H]4COC5(CCN(C(=O)CN6CCC(c7ccc(NC8CCC(=O)NC8=O)cc7S(=O)(=O)F)CC6)CC5)C4)c(=O)c3c2)c1C#N` (some centres unmarked) [drawing 1222], in that order: “*** (<= 1 μM is ***)”, 1000 to 10000 nM and less than 60%.
The like results for `CCN(C)S(=O)(=O)Nc1ccc(F)c(Oc2ccc3ncn([C@@H]4COC5(CCN(C(=O)CN6CCC(c7ccc(C8CCC(=O)NC8=O)cc7OS(C)(=O)=O)CC6)CC5)C4)c(=O)c3c2)c1C#N` (some centres unmarked) [drawing 1223] were, in that order, “*** (<= 1 μM is ***)”, less than 1000 nM and less than 60%.
Turning to `CCN(C)S(=O)(=O)Nc1ccc(F)c(Oc2ccc3ncn([C@H]4COC5(CCN(C(=O)CN6CCC(c7ccc(OC8CCC(=O)NC8=O)cc7OS(C)(=O)=O)CC6)CC5)C4)c(=O)c3c2)c1C#N` (some centres unmarked) [drawing 1224], the “HiBIT-Degradation A375.10 BRAF 24 hours IP nM” value was “*** (<= 1 μM is ***)”, the DC50 was in the range of 1000 to 10000 nM and the Emax was less than 60%.
Regarding `CCN(C)S(=O)(=O)Nc1ccc(F)c(Oc2ccc3ncn([C@H]4COC5(CCN(C(=O)CN6CCC(c7ccc(OC8CCC(=O)NC8=O)cc7S(=O)(=O)F)CC6)CC5)C4)c(=O)c3c2)c1C#N` (some centres unmarked) [drawing 1225], the “HiBIT-Degradation A375.10 BRAF 24 hours IP nM” value is “** (<10 μM and >1 μM is **)”; the DC50 was greater than 10000 nM; the maximal response (Emax) was in the range of 60 to 95%.
As for `CCN(C)S(=O)(=O)Nc1ccc(F)c(Oc2ccc3ncn([C@@H]4COC5(CCN(C(=O)CN6CCC(c7ccc(NC8CCC(=O)NC8=O)cc7OS(C)(=O)=O)CC6)CC5)C4)c(=O)c3c2)c1C#N` (some centres unmarked) [drawing 1226], the “HiBIT-Degradation A375.10 BRAF 24 hours IP nM” value was “** (<10 μM and >1 μM is **)”; the DC50 is 1000 to 10000 nM; the Emax is less than 60%.
